Experimental data published in BigSolDB 2.1.

CC1(C)S[C@@H]2[C@H](NC(=O)[C@H](NC(=O)N3CCNC3=O)c3ccccc3)C(=O)N2[C@H]1C(=O)O
solubility (mole fraction)
Details | 278.15 K | 283.15 K | 288.15 K | 293.15 K | 298.15 K | 303.15 K | 308.15 K | 313.15 K | 318.15 K | 323.15 K
in THF | 0.00106 | 0.00115 | 0.00131 | 0.00149 | 0.00164 | 0.00178 | 0.00199 | 0.00218 | 0.00243 | 0.00276
in acetone | 0.000492 | 0.000572 | 0.000667 | 0.000823 | 0.000919 | 0.00112 | 0.00133 | 0.00155 | 0.00192 | 0.00223
in acetonitrile | 0.000491 | 0.000551 | 0.000643 | 0.000757 | 0.000836 | 0.000934 | 0.00108 | 0.00122 | 0.00137 | 0.00156
in ethanol | 0.000687 | 0.000805 | 0.000954 | 0.00113 | 0.00131 | 0.00165 | 0.00197 | 0.00245 | 0.00296 | 0.00368
in ethyl acetate | 0.000219 | 0.000243 | 0.000287 | 0.000311 | 0.000353 | 0.000411 | 0.000462 | 0.000528 | 0.000613 | 0.000688
in isopropanol | 9.02e-05 | 0.000111 | 0.000132 | 0.000162 | 0.000196 | 0.00024 | 0.000289 | 0.000376 | 0.000456 | 0.000557
in isopropyl acetate | 6.88e-05 | 7.89e-05 | 9.25e-05 | 0.000102 | 0.000116 | 0.00013 | 0.000148 | 0.00017 | 0.000192 | 0.000219
in methanol | 0.000281 | 0.00033 | 0.000403 | 0.000478 | 0.000602 | 0.000728 | 0.000948 | 0.00115 | 0.00142 | 0.00178
in methyl acetate | 0.00027 | 0.000313 | 0.000372 | 0.000463 | 0.000565 | 0.000651 | 0.000758 | 0.000921 | 0.00107 | 0.0013
